Experiments:
Format in all cases: cell-based
[1] = molecular target: T1, human ERG (ether-a-go-go related gene) potassium channel (Homo sapiens, UniProt Q12809); assay: hERG channel whole-cell patch clamp (Ion Channel Activity Measurement); conditions: room temperature; for hERG 1 μM (ion-channel inhibition): 1 μM test article; for hERG 10 μM (ion-channel inhibition): 10 μM test article
T1 construct: expressed in transfected cells; host or cells: HEK293
In short: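 HEK293 cells stably expressing hERG (NM_000238) were recorded by whole-cell patch clamp at 23-25° C. Holding potential −80 mV, step to 30 mV for 2.5 s, tail currents at −50 mV for 4 s, pulses every 10 s. Each concentration was perfused low to high for 5 min or to steady state, with each cell as its own control.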

[2] = molecular target: T2, human calcium channel, voltage-dependent, L type (CaV1.2: CACNA1C, CACNB2, CACNA2D1) (Homo sapiens, UniProt Q13936); assay: CaV1.2 channel whole-cell patch clamp (Ion Channel Activity Measurement); conditions: room temperature; for Cav1.2 1 μM (ion-channel inhibition): 1 μM test article; for CaV 1.2 10 μM (ion-channel inhibition): 10 μM test article
T2 construct: expressed in transfected cells; host or cells: CHO
In short: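 Whole-cell patch clamp was run on CHO cells stably expressing CACNA1C/CACNB2/CACNA2D1 at 23–25 °C, with 10 mM CaCl2 TEA bath (pH 7.4) and CsCl pipette solution (pH 7.2). Currents were evoked from −80 mV to +10 mV for 0.3 s every 20 s without leak subtraction. Ascending concentrations were each applied for 5 min or until steady state.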

[3] = molecular target: T3, Iks potassium voltage-gated channel (KCNQ1 and KCNE1) (Homo sapiens, UniProt P51787); assay: Iks channel whole-cell patch clamp (Ion Channel Activity Measurement); conditions: room temperature
T3 construct: expressed in transfected cells; host or cells: CHO
Method: CHO cell line stably expressing Iks potassium voltage-gated channel subfamily Q member 1(KCNQ1) and potassium voltage-gated channel subfamily E regulatory subunit 1 (KCNE1), cDNA strictly similar to GenBank accession number: NM_000218 and NM_000219
Cells expressing channels were cultured in medium supplemented with 20% FBS in HAM'S F12 culture dish. Cells grew in a humidified incubator at 37° C. under 5% carbon dioxide. To passage cells, remove poor medium and rinse the cells once with PBS 1X. […] Place plate on a 37° C. warming incubator 5 min. As soon as cells are detached, add 5 ml of 37° C. complete medium. Draw cell suspension into a sterile pipet and homogenize cells gently to dissociate cells aggregates. Amplify or maintain the cells by seeding 2.5*105 cells in a 6 cm dish (final volume: 5 ml). To maintain electrophysiological performances, cell density must not exceed 80%. On the day before patch clamp experiment, 3*103 cells were seeded on coverslips in the 24-well plate and incubated at 37° C. in 5% carbon dioxide.
Extracellular solution (mM): 140 NaCl, 2.5 KCl, 1 MgCl2, 2 CaCl2, 5 Glucose, 10 HEPES, pH=7.4 with NaOH.
Pipette solution (mM): 120 K-aspartic, 10 HEPES, 5 MgCl2, 5 EGTA, 4 Na2-ATP 0.3 Na2-GTP, 14 mM Phosphocreatine disodium salt, 20 u/mL Creatine phosphor kinse pH 7.2 with KOH
Glass pipette (BF150-86-10, Sutter Instruments) was made by puller (P97, Sutter Instruments). The glass pipette was manipulated using Micro-manipulator (Carm-C-S, MCI Instruments) under the microscope (AE31EF-INV, Motic). After touching the cell, a slight suction was applied to achieve high seal (GΩ). Fast capacitance (in pF) compensation was made after high seal was achieved; after achieving high seal, the membrane was broken, Cell capacitance (in pF) compensation was made from whole-cell capacitance compensation after the whole cell mode was achieved. No leak subtraction was made.
Cell was incubated with the test article for 5 minutes, or until the current reached a steady-state level. Multiple concentrations of test article were tested. The test articles were applied gradually from low to high concentration. The test and control solutions were flown into a recording chamber mounted on the stage of an inverted microscope via a gravity-fed solution delivery system. During the experiment, solutions were withdrawn from the recording chamber by vacuum aspiration. Each concentration was tested at multiple times. Each cell acted as its own control. All tests were performed at room temperature (23-25° C.).
IKs current was measured using a pulse protocol consisting of −80 mV holding potential increment up to +60 mV over a period of 5 seconds. And then quickly repolarizedat −40 mV and maintained for 4 seconds.

T1 sequence (Q12809 whole entry): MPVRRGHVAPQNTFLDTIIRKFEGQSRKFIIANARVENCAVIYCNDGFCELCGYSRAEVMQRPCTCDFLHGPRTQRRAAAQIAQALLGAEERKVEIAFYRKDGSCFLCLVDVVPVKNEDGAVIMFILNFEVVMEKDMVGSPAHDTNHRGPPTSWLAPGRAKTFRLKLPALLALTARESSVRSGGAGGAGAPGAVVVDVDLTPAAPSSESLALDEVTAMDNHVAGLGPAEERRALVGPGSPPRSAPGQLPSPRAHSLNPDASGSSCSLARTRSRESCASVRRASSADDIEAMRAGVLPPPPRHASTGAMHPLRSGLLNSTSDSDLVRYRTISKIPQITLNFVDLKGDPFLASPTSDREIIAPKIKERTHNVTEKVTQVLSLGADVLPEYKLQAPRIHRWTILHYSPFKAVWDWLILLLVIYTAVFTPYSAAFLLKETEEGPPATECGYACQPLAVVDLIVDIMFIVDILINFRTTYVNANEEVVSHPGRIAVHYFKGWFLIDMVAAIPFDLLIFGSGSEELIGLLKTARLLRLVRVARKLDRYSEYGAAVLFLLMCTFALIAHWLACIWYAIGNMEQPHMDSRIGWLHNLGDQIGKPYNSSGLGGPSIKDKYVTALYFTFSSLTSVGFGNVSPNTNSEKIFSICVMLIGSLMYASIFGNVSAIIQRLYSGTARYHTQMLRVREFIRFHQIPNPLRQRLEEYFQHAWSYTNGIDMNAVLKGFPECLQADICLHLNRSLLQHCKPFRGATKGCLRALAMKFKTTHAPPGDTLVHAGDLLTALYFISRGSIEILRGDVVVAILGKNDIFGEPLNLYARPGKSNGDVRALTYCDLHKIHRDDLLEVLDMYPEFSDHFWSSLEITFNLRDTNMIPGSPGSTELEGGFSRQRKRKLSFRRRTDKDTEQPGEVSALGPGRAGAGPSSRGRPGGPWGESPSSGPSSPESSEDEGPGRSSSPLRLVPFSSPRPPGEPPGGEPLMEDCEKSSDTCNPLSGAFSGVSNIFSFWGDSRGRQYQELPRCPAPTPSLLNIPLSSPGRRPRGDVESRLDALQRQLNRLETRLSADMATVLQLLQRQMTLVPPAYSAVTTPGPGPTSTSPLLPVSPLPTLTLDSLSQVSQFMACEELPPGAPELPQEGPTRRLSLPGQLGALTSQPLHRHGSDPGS
T2 sequence (Q13936 1-2138 isoform Q13936-12): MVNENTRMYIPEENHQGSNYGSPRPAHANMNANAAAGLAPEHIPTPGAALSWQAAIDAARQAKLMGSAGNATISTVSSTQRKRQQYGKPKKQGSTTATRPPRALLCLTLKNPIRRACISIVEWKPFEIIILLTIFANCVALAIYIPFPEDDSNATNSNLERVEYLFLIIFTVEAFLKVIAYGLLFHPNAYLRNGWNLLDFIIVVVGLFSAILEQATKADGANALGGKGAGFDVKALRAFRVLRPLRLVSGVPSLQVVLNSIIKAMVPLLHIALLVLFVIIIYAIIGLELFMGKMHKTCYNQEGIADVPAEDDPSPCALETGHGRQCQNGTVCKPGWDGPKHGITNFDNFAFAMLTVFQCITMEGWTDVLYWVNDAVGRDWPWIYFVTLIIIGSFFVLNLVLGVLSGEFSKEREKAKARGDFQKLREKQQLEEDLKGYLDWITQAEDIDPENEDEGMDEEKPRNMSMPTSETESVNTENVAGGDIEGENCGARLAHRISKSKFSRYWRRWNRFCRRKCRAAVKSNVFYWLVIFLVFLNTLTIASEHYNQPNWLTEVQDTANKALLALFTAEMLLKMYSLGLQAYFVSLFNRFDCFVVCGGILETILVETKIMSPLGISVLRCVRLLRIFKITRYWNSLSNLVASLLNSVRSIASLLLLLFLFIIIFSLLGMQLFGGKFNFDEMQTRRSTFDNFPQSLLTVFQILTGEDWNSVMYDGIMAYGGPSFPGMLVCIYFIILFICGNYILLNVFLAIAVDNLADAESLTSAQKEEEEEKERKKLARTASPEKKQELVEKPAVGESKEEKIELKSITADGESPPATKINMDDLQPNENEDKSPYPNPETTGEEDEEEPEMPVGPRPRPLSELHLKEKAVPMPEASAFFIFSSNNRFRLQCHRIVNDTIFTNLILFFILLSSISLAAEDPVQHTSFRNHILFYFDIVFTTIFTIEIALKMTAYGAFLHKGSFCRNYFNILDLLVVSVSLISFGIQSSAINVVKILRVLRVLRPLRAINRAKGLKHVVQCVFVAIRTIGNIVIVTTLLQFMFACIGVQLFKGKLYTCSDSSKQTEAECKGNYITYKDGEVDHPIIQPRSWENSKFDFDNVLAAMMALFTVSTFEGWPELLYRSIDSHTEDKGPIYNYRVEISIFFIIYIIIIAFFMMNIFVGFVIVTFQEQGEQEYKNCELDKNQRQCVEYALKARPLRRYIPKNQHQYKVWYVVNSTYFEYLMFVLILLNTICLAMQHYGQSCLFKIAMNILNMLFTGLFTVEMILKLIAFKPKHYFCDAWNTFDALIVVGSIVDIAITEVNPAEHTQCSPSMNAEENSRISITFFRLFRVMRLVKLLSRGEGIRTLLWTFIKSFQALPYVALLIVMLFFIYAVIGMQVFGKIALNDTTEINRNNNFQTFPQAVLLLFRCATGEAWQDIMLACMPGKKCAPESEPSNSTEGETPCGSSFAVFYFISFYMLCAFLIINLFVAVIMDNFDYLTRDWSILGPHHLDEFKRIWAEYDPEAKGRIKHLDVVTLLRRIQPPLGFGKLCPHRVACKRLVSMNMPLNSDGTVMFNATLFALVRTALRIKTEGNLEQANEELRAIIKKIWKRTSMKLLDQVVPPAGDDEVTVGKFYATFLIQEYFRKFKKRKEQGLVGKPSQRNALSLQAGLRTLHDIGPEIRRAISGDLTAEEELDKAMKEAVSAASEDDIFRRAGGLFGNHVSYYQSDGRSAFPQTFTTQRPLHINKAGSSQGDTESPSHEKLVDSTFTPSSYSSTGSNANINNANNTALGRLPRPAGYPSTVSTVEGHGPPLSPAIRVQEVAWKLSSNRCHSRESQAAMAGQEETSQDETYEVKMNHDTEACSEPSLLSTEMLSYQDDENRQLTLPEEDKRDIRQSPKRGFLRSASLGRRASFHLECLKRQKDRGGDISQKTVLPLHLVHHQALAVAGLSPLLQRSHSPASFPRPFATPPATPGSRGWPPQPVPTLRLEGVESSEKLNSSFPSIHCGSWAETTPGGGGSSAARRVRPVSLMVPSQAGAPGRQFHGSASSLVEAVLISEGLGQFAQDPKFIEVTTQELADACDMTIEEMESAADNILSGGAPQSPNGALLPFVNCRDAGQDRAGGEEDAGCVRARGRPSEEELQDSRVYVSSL
T2 sequence (Q08289 1-605 isoform Q08289-2 partner): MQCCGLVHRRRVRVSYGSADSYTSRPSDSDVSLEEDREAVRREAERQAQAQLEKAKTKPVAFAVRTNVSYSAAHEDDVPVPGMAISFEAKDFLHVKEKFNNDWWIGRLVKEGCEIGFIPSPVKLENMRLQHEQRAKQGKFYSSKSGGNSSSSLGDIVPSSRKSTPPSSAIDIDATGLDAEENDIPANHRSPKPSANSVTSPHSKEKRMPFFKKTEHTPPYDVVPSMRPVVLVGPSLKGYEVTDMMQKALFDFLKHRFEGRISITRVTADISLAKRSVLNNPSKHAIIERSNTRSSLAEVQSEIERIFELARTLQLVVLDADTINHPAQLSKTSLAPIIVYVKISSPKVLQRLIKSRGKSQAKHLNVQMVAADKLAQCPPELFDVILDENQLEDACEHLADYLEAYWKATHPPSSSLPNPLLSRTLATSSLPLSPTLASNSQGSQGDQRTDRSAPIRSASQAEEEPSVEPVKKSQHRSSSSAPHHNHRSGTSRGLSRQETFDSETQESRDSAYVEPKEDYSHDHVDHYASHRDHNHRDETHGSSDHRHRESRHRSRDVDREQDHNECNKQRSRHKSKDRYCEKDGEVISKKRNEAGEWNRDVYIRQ
T2 sequence (P54289 25-1091 isoform P54289-2 partner limits assumed): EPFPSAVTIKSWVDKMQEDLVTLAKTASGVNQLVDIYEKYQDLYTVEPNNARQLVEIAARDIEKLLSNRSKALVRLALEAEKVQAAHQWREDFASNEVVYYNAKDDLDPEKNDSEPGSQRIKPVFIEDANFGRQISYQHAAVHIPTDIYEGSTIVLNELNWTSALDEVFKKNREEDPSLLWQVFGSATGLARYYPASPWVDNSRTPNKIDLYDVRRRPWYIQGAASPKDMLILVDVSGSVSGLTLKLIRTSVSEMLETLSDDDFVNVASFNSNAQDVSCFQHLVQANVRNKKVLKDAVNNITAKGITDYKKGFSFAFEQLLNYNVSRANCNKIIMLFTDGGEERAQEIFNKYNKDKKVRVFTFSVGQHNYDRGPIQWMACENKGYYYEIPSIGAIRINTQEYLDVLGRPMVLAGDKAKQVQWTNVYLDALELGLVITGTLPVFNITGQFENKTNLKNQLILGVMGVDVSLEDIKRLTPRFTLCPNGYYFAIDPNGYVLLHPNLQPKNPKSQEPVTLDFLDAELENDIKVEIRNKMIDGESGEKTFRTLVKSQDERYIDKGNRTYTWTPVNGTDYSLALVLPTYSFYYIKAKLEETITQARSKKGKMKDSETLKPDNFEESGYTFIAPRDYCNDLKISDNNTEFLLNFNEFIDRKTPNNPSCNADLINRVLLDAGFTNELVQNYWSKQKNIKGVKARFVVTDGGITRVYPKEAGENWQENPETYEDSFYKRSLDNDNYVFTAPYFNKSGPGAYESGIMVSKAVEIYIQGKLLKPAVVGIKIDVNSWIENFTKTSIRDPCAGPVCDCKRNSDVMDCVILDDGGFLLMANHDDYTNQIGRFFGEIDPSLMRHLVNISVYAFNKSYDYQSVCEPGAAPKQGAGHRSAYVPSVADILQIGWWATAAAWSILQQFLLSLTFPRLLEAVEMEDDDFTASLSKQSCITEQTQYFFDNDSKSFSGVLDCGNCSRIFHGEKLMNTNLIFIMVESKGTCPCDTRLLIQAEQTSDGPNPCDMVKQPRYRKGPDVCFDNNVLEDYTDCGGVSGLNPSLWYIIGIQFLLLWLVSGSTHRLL
T2 sequence (P54289 957-1103 partner limits assumed): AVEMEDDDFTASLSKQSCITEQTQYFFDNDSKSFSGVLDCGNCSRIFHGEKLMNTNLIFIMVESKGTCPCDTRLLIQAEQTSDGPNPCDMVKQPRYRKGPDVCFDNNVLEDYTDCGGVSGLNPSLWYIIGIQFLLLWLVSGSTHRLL

Row | SMILES | hERG 1 μM (ion-channel inhibition) [1] | hERG 10 μM (ion-channel inhibition) [1] | Cav1.2 1 μM (ion-channel inhibition) [2] | CaV 1.2 10 μM (ion-channel inhibition) [2] | Iks 1 μM (ion-channel inhibition) ([3]; 1 μM test article) | Iks 10 μM (ion-channel inhibition) ([3]; 10 μM test article)
1 | Oc1cccc(-c2ccccc2)c1Cc1c(O)cccc1-c1ccccc1 [Compound A034, 2,2″-methylenebis(([1,1′-biphenyl]-3-ol))] | D (D = <25%) | D (D = <25%) | D (D = <25%) | B (B = = 50-75%) |  | 
2 | CCN(CC)CCOc1ccc2ccccc2c1Cc1c(O)ccc2ccccc12.O=CO [Compound A093, 1-((2-(2-(diethylamino)ethoxy)naphthalen-1-yl)methyl)naphthalen-2-ol formate] | A (A = 75-100%) | A (A = 75-100%) | C (C = 25-50%) | A (A = 75-100%) | D (D = <25%) | A (A = 75-100%)

Reference: US12187681B2 (Shanghai East Hospital, priority 2019, dated 2025)
